Results reported in US11173192B2 (priority 2016, dated 2021).
Where no end group is shown, it is not given here.

Assays:
MAVS [1] = conditions: 293T cells expressing EPRS, PCBP2, ITCH, Ub; MG-132
MAVS [2] = conditions: PCBP2-transfected 293T cells, various concentrations of EPRS
Protocol: For immunoblotting analysis, cells were lysed with RIPA buffer (20 mM Tris-HCl, pH 7.4, 150 mM NaCl, 1% NP-40, and 1 mM EDTA) containing a protease inhibitor cocktail and a phosphatase inhibitor cocktail (Roche). Whole cell lysates (50 μg to 100 μg) were subjected to SDS-PAGE, followed by immunoblotting with respective antibodies.

[3] = target: T1, binding of PCBP2 to ITCH E3 ligase (Homo sapiens, UniProt Q15366); assay: GST precipitation of the PCBP2-ITCH interaction in the presence of EPRS; assay type: cell-based
T1 construct: FLAG-, Strep-, His-, or GST-tagged full-length and truncated PCBP2 were also prepared; expressed in transfected cells
T1 sequence (Q15366 whole entry, the tested form may be a part): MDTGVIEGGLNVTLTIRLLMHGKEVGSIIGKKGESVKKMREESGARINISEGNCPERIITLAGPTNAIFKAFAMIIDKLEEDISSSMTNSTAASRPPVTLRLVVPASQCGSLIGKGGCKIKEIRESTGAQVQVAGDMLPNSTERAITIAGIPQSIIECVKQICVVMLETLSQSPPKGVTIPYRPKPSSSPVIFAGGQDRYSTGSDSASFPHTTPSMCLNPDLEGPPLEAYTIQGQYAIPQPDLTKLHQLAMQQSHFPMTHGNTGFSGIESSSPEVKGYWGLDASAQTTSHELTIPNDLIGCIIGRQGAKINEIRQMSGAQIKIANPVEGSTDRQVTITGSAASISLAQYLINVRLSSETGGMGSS
T1 sequence (Q96J02 whole entry partner, the tested form may be a part): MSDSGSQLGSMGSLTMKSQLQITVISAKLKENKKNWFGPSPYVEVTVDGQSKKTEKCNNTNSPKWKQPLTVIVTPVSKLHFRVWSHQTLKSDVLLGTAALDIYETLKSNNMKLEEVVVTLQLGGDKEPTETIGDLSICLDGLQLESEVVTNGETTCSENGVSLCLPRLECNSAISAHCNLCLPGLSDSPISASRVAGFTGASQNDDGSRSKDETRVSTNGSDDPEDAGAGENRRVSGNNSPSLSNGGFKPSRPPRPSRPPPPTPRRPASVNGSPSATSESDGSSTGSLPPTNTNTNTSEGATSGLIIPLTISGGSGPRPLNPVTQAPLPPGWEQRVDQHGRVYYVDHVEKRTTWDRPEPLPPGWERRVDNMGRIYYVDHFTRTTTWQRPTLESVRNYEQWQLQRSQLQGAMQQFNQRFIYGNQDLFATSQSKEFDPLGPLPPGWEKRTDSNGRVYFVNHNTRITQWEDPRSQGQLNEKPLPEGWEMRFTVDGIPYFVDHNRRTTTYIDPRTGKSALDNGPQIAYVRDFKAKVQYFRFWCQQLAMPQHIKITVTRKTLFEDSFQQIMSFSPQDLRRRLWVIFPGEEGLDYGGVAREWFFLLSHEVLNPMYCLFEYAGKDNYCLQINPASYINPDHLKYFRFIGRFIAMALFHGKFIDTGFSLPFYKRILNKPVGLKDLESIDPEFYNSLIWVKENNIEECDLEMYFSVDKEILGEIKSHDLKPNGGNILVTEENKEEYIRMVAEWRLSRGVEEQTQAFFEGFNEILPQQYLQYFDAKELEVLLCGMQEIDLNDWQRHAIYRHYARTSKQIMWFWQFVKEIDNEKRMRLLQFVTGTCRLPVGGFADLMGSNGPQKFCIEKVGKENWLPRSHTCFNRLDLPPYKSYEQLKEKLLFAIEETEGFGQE

[4] = target: T2, interaction between PCBP2 and MAVS (Homo sapiens, UniProt Q15366); assay: GST precipitation of the PCBP2-MAVS interaction in 293T cells with various amounts of EPRS; assay type: cell-based; conditions: 293T cells transfected with MAVS and PCBP2, various amounts of EPRS
T2 construct: FLAG-, Strep-, His-, or GST-tagged full-length and truncated PCBP2 were also prepared; expressed in transfected cells; host or cells: 293T
T2 sequence (Q15366 whole entry, the tested form may be a part): as the sequence (Q15366 whole entry, the tested form may be a part) above

VSV-Indiana = tested on: VSV-Indiana; set-up: species or system mice; conditions: in vivo, iv
[5] = tested on: VSV-infected RAW264.7 cells; assay type: cell-based
VSV = assay type: cell-based, vesicular stomatitis virus (VSV)
293T cells = assay: MTS cytotoxicity assay, 293T cells; assay type: cell-based; conditions: 12 or 24 hours
Protocol: (§1) HEK293T or RAW264.7 cells were seeded in 96-well plates (10,000 per well) before treatment with Tat-Epep (20-200 μM) for 0-24 hours. Cytotoxicity was determined in a colorimetric assay using MTS [3-(4,5-dimethylthiazole-2-yl)-5-(carboxymethoxyphenyl)-2-(4-sulfophenyl)-2H-tetrazolium salt] (Promega) 20 μL of MTS was added to each well at 37° C. for 1 hour. Optical density at 490 nm was recorded using an automated microplate reader (BioTek). Background absorbance at 630 nm was subtracted from each sample reading.

RAW264.7 cells = assay: MTS cytotoxicity assay, RAW264.7 cells; assay type: cell-based; conditions: various concentrations, 12 hours
Protocol: as §1

PCBP2 KH1 (aa 11-82) = PCBP2 KH1 (aa 11-82) (Homo sapiens, UniProt Q15366); assay: In vitro pull-down of purified EPRS domains with PCBP2 KH1; conditions: purified His-tagged EPRS domains, GST-fused PCBP2 KH1
Chain of PCBP2 KH1 (aa 11-82) (Q15366 11-82): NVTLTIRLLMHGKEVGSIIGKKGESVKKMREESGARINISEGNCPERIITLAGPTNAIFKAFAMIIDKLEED

PCBP2 = target: T3, PCBP2 (Homo sapiens, UniProt Q15366); assay: Co-IP of EPRS or its fragments with PCBP2 in 293T cells; assay type: binding; conditions: 293T cells transfected with PCBP2 and EPRS plasmids
T3 construct: FLAG-, Strep-, His-, or GST-tagged full-length and truncated PCBP2 were also prepared; expressed in transfected cells; host or cells: 293T
T3 sequence (Q15366 whole entry, species assumed, the tested form may be a part): as the sequence (Q15366 whole entry, the tested form may be a part) above
Protocol: For immunoprecipitation, cell lysates were pre-cleared by incubation with protein A beads for 1 hour at 4° C. The pre-cleared cell lysates were incubated overnight at 4° C. with the respective antibodies, followed by incubation with 30 μL of protein A/G PLUS-agarose beads for 3 to 4 hours at 4° C. The immunoprecipitates were then collected and washed five times with a lysis buffer before immunoblotting analysis.

EPRS: glutamyl-prolyl-tRNA synthetase protein, 1512 aa, SEQ ID NO: 63; expressed from plasmid or purified
PCBP2-mediated ubiquitination of exogenous MAVS-FLAG (MAVS [1]): inhibited PCBP2-mediated ubiquitination of MAVS in a dose-dependent manner
endogenous ubiquitination of MAVS (MAVS [1]): significantly attenuated in the presence of EPRS
PCBP2-induced degradation of endogenous MAVS (MAVS [2]): rescued from this degradation
PCBP2-induced degradation of exogenous MAVS (MAVS [2]): rescued from this degradation
binding of PCBP2 to ITCH E3 ligase [3]: did not disrupt the binding of PCBP2 to ITCH E3 ligase
interaction between PCBP2 and MAVS [4]: significantly reduced

YGRKKRRQRRR-GG-KWDVSTTKARVAPEKKQDVGK (YGRKKRRQRRRGGKWDVSTTKARVAPEKKQDVGK; New Tat-Epep)
VSV viral titers in mouse brains (VSV-Indiana): decrease VSV viral titers in the mouse brains
increase in IFN-β secretion as compared with Tat-Epep [5]: 2- to 3 fold
increase in IL-6 secretion as compared with Tat-Epep [5]: 2- to 3 fold
viral replication (fluorescence images) (VSV): stronger inhibitory effect

YGRKKRRQRRRGGDVSTTKARVAPEKKQDVGKFVELPGAEMG [Tat-Epep]
viability of 293T cells (293T cells): no effect on the viability
viability of RAW264.7 cells (RAW264.7 cells): no effect on the viability

B1: EPRS (aa 1-196): N-terminal EPRS fragment containing GST-like domain and linker region L1 (protein)
chain: MATLSLTVNSGDPPLGALLAVEHVKDDVSISVEEGKENILHVSENVIFTDVNSILRYLARVATTAGLYGSNLMEHTEIDHWLEFSATKLSSCDSFTSTINELNHCLSLRTYLVGNSLSLADLCVWATLKGNAAWQEQLKQKKAPVHVKRWFGFLEAQQAFQSVGTKWDVSTTKARVAPEKKQDVGKFVELPGAEMG
direct interaction with PCBP2 KH1 (in vitro precipitation) (PCBP2 KH1 (aa 11-82)): specifically interacted
interaction with PCBP2 (co-IP) (PCBP2): crucial for the interaction with PCBP2
